# Patent US20120076781A1, “METHODS OF TREATING CANCERS WITH HER3 ANTISENSE OLIGONUCLEOTIDES” (ENZON PHARMACEUTICALS, INC., priority 2009, published 2012)
# Marks after values point to notes of the source that are not given here. In the oligonucleotide strings, read from the 5' end, every base follows the letter of its sugar. An asterisk marks phosphorothioate; unmarked linkages are phosphodiester. Other units and linkages are bracketed, terminal groups are in braces. A string of capitals states the bases alone. l = locked nucleic acid (LNA); [5mC] = 5-methylcytosine; d = 2'-deoxy (DNA)
# Assays:
# [1] = tested on: HCC827R gefitinib resistant cells; experiment: Cell proliferation of HCC827R cells under gefitinib (MTT assay); assay type: cell-based, human; details: highest concentration tested 10 μM
# Method: HCC827 lung adenocarcinoma cells (ATCC CRL-2868) were maintained at 37° C. in a humidified atmosphere of 5% CO2 and 95% air in RPMI medium supplemented with 10% fetal bovine serum. To generate gefitinib resistance, cells were treated with increasing amounts of gefitinib (up to 500 nM) for a period of 3 months.
# human HER3 mRNA [2] = experiment: Down-regulation of HER3 mRNA in transfected 15PC3 cells, real-time PCR; assay type: cell-based; details: 25 nM
# Method: (§1) 15PC3: The human prostate cancer cell line 15PC3 was cultured in DMEM (Sigma)+10% fetal bovine serum (FBS)+2 mM Glutamax I+gentamicin (25 μg/ml).
# (§2) The cells were treated with oligonucleotides using the cationic liposome formulation LipofectAMINE 2000 (Gibco) as transfection vehicle. Cells were seeded in 6-well cell culture plates (NUNC) and treated when 80-90% confluent. Oligomer concentrations ranged from 1 nM to 25 nM final concentration. Formulation of oligomer-lipid complexes was carried out essentially as described by the manufacturer using serum-free OptiMEM (Gibco) and a final lipid concentration of 5 μg/mL LipofectAMINE 2000. Cells were incubated at 37° C. for 4 hours and treatment was stopped by removal of oligomer-containing culture medium. Cells were washed and serum-containing medium was added. After oligomer treatment, cells were allowed to recover for 20 hours before they were harvested for RNA analysis.
# (§3) Total RNA was extracted from cells transfected as described above and using the Qiagen RNeasy kit (Qiagen cat. no. 74104) according to the manufacturer's instructions. First strand synthesis was performed using Reverse Transcriptase reagents from Ambion according to the manufacturer's instructions.
# (§4) For each sample 0.5 μg total RNA was adjusted to (10.8 μl) with RNase free H2O and mixed with 2 μl random decamers (50 μM) and 4 μl dNTP mix (2.5 mM each dNTP) and heated to 70° C. for 3 min after which the samples were rapidly cooled on ice. After cooling the samples on ice, 2 μl 10× Buffer RT, 1 μl MMLV Reverse Transcriptase (100 U/μl) and 0.25 μl RNase inhibitor (10 U/μl) was added to each sample, followed by incubation at 42° C. for 60 min, heat inactivation of the enzyme at 95° C. for 10 min, and then cooling the sample to 4° C.
# (§5) The sample content of human HER3, EGFR and HER2 mRNA was quantified using the human HER3, EGFR and HER2 ABI Prism Pre-Developed TaqMan Assay Reagents (Applied Biosystems cat. no. Hs00951444_ml (HER3), Hs00193306_ml (EGFR) and Hs00170433_ml (HER2) according to the manufacturer's instructions.
# (§6) Glyceraldehyde-3-phosphate dehydrogenase (GAPDH) mRNA quantity was used as an endogenous control for normalizing any variance in sample preparation. The sample content of human GAPDH mRNA was quantified using the human GAPDH ABI Prism Pre-Developed TaqMan Assay Reagent (Applied Biosystems cat. no. 4310884E) according to the manufacturer's instructions.
# (§7) The cDNA from the first strand synthesis performed as described in Example 5 was diluted 2-20 times, and analyzed by real time quantitative PCR using Taqman 7500 FAST or 7900 FAST from Applied Biosystems. The primers and probe were mixed with 2× Taqman Fast Universal PCR master mix (2×) (Applied Biosystems Cat. #4364103) and added to 4 μl cDNA to a final volume of 10 μl. Each sample was analysed in duplicate. Assaying 2-fold dilutions of a cDNA that had been prepared on material purified from a cell line expressing the RNA of interest generated standard curves for the assays. Sterile H2O was used instead of cDNA for the no-template control. PCR program: 95° C. for 30 seconds, followed by 40 cycles of 95° C., 3 seconds, 60° C., 20-30 seconds. Relative quantities of target mRNA sequence were determined from the calculated Threshold cycle using the Applied Biosystems Fast System SDS Software Version 1.3.1.21. or SDS Software Version 2.3.
# (§8) Oligonucleotides presented in Table 4 were evaluated for their potential to down-regulate HER3, EGFR and HER2 mRNA at concentrations of 1, 5 and 25 nM in 15PC3 cells (or HUH-7 as indicated by *) (see FIGS. 2, 3, 4 and 5). SEQ ID NOs: 235 and 236 were used as scrambled controls.
# (§9) The data in Table 4 are presented as percentage down-regulation of mRNA relative to mock transfected cells at 25 nM. Lower-case letters represent DNA monomers, bold, upper-case letters represent β-D-oxy-LNA monomers. All cytosines in LNA monomers are 5-methylcytosines. Subscript “s” represents a phosphorothioate linkage.
# human EGFR mRNA = experiment: Down-regulation of EGFR mRNA in transfected 15PC3 cells, real-time PCR; assay type: cell-based; details: 25 nM
# Method: as §1, §2, §3, §4, §5, §6, §7, §8, §9
# human HER2 mRNA = experiment: Down-regulation of HER2 mRNA in transfected 15PC3 cells, real-time PCR; assay type: cell-based; details: 25 nM
# Method: as §1, §2, §3, §4, §5, §6, §7, §8, §9
# Mouse HER3 mRNA = experiment: HER3 mRNA knockdown in liver of nude mice bearing 15PC3 xenografts, qd x 5 (qRT-PCR); assay type: in vivo; details: i.v.
# Method: (§10) To evaluate the knockdown efficacy of the HER3 oligomeric compounds in vivo, the female nude mice bearing 15PC3 xenografts developed by subcutaneous injection of 5×10^6 cells/mouse into the right axillary flank, were injected intravenously with the oligomers at various doses and injection schedules (i.e. single dose, qd, q3d, q4d). Scrambled oligomer SEQ ID NO: 236 served as a negative control. 24 hours after the last injection, the mice were euthanized and liver and tumor tissues were collected in RNAlater solution (Ambion). Total RNA was purified from the tissues and the levels of HER3 mRNA were determined by quantitative reverse transcription-real time PCR (qRT-PCR) using the QuantiTect Probe RT-PCR kit (Cat#: 204443; Qiagen). GAPDH mRNA served as an internal control.
# (§11) 200 ng of total RNA was used in the PCR reaction. The data analyses were performed by using the ABI-7500 PCR Fast System included software.
# (§12) Data in Table 5 are presented as % HER3 mRNA levels relative to saline treated controls in liver and tumor samples after i.v. dosing of animals on 5 consecutive days with oligonucleotides in the doses indicated.
# human HER3 mRNA [3] = experiment: HER3 mRNA knockdown in 15PC3 xenograft tumor in nude mice, qd x 5 (qRT-PCR); assay type: in vivo; details: 32.4 mg/kg, i.v., relative to saline controls
# Method: as §10, §11, §12
# HER3 mRNA [4] = experiment: HER3 mRNA knockdown in 15PC3 xenograft tumor, different dosing cycle; assay type: in vivo, human; details: 32.4 x 4 mg/kg i.v., every third day
# Method: as §10
# (§13) The knockdown efficacy of oligomers was evaluated in vivo in nude mice bearing xenograft tumors derived from 15PC3 cells or A549 cells (NSCLC) or N87 cells (gastric carcinoma) using a similar protocol to the one described above in Example 11. Oligomers were administered by injection every third day in 2-4 doses. Tissues were harvested 3 or 4 days after the last injection.
# (§14) Data in Tables 6 and 7 are presented as % HER3 mRNA or HIF-1 alpha mRNA relative to saline treated controls in liver and tumor samples after i.v. dosing of animals with the indicated oligomers.
# HIF-1 alpha mRNA = HIF-1 alpha mRNA in 15PC3 xenograft tumor, different dosing cycle; assay type: in vivo, human; details: 32.4 x 4 mg/kg i.v., every third day
# Method: as §10, §13, §14
# HER3 mRNA [5] = experiment: HER3 mRNA knockdown in liver of xenograft-bearing nude mice, different dosing cycle; assay type: in vivo, mouse; details: 15PC3 xenograft mice, 32.4 x 4 mg/kg i.v., every third day
# Method: as §10
# as §13, with “Oligomers were administered by injection every third day in 2-4 doses.” left out
# as §14
# human HER3 mRNA [6] = experiment: Down-regulation of HER3 mRNA in transfected HUH-7 cells, real-time PCR; assay type: cell-based; details: 25 nM, HUH-7 cells (indicated by *)
# Method: HUH7: The human hepatocarcinoma cell line was cultured in DMEM (Sigma)+10% fetal bovine serum (FBS)+2 mM Glutamax I+gentamicin (25 μg/ml)+1× Non Essential Amino Acids.
# The cells were treated with oligonucleotides using the cationic liposome formulation LipofectAMINE 2000 (Gibco) as transfection vehicle. Cells were seeded in 6-well cell culture plates (NUNC) and treated when 80-90% confluent. Oligomer concentrations ranged from 1 nM to 25 nM final concentration. Formulation of oligomer-lipid complexes was carried out essentially as described by the manufacturer using serum-free OptiMEM (Gibco) and a final lipid concentration of 5 μg/mL LipofectAMINE 2000. […]
# as §5
# as §6, with “instructions. […]” for “instructions.”
compound,measurement,setting,value
COc1cc2ncnc(Nc3ccc(F)c(Cl)c3)c2cc1OCCCN1CCOCC1 [gefitinib],cell proliferation of HCC827R cells under gefitinib,[1],resistant to gefitinib even at the highest concentration tested
"ASGSAScSaStScSaScStScStSgSGSTSG (antisense lA*lG*lA*dC*dA*dT*dC*dA*dC*dT*dC*dT*dG*lG*lT*lG) [SEQ ID NO: 172, β-D-oxy-LNA/DNA phosphorothioate gapmer antisense oligonucleotide targeting HER3]",HER3: percentage down-regulation of mRNA relative to mock transfected cells,human HER3 mRNA [2],84.2%
same,EGFR: percentage down-regulation of mRNA relative to mock transfected cells,human EGFR mRNA,86.2%
same,HER2: percentage down-regulation of mRNA relative to mock transfected cells,human HER2 mRNA,61%
same,HER3 mRNA Liver,Mouse HER3 mRNA; 9.7 mg/kg,12.2 ± 5.9 % of Sal ctrl
same,HER3 mRNA Liver,Mouse HER3 mRNA; 32.4 mg/kg,7.4 ± 5.2 % of Sal ctrl
same,HER3 mRNA Tumor,human HER3 mRNA [3],78.1 ± 15.3%
same,Tumor HER3 mRNA relative to saline treated controls,HER3 mRNA [4],107.3 ± 17%
same,Tumor Hif1A mRNA relative to saline treated controls,HIF-1 alpha mRNA,100.3 ± 7.5%
same,Liver HER3 mRNA relative to saline treated controls,HER3 mRNA [5],44.3 ± 10.6%
CSASTScSaScStScStSgSgStSgSTSGST (l[5mC]*lA*lT*dC*dA*dC*dT*dC*dT*dG*dG*dT*dG*lT*lG*lT; antisense) [SEQ ID NO: 195],HER3: percentage down-regulation of mRNA relative to mock transfected cells,human HER3 mRNA [6],64.4%*
